According to patent US10894784B2, “Heteroarylbenzimidazole compounds” (BAYER PHARMA AKTIENGESELLSCHAFT, priority 2015, dated 2021):

Molecular target: TBK1 (Homo sapiens (Human), UniProt Q9UHD2)
Assay: TBK1 low ATP kinase assay (in vitro assay 1)
Assay type: biochemical
Details: in vitro assay 1, read-out: TBK1 low ATP kinase assay IC50

Chain of TBK1 (Q9UHD2 whole entry): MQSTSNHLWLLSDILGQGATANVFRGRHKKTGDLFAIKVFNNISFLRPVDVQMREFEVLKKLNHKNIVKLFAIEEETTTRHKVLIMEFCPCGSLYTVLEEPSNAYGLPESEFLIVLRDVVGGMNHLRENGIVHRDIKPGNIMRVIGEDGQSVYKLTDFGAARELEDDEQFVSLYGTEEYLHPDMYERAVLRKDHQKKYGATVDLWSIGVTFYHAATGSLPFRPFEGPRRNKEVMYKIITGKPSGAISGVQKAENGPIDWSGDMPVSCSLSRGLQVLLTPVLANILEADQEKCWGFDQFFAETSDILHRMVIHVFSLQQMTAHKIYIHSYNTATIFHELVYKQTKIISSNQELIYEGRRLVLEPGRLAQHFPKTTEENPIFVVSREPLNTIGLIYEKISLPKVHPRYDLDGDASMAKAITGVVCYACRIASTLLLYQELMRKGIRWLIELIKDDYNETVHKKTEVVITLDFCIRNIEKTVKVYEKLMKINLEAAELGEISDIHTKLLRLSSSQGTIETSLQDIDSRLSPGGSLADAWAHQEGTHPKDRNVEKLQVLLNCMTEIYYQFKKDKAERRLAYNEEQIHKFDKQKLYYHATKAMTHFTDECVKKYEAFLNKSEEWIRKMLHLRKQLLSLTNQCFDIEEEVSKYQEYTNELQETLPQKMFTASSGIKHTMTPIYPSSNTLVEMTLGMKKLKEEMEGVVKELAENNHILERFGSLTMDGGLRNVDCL

SMILES | IC50 [nM]
COCCCNc1cc(-c2ccc3nc(Nc4cc(CN5CCN(C(=O)CC(F)(F)F)CC5)ccn4)[nH]c3c2)ncn1 [Example 90.02, 3,3,3-trifluoro-1-[4-({2-[(6-{6-[(3-methoxypropyl)amino]pyrimidin-4-yl}-1H-benzimidazol-2-yl)amino]pyridin-4-yl}methyl)piperazin-1-yl]propan-1-one] | 11
COc1c(NCC2CC2)ncnc1-c1ccc2nc(Nc3cc(C(C)N4CCN(C(=O)OC(C)(C)C)CC4)ccn3)[nH]c2c1 (single isomer, unassigned) [Example 109.02.01, tert-butyl 4-[(1R or 1S)-1-{2-[(6-{6-[(cyclopropylmethyl)amino]-5-methoxypyrimidin-4-yl}-1H-benzimidazol-2-yl)amino]pyridin-4-yl}ethyl]piperazine-1-carboxylate] | 8
Cc1cc(-c2ccc3nc(Nc4cc(C(C)N5CCN(C(=O)CC6CC6)CC5)ccn4)[nH]c3c2)ncn1 (racemic) [Example 30.02.04, (rac)-2-cyclopropyl-1-{4-[1-(2-{[6-(6-methylpyrimidin-4-yl)-1H-benzimidazol-2-yl]amino}pyridin-4-yl)ethyl]piperazin-1-yl}ethanone] | 9.35
CC(c1ccnc(Nc2nc3ccc(-c4ccncn4)cc3[nH]2)c1)N1CCN(C(=O)CC(F)(F)F)CC1 (racemic) [Example 23.04.03, (rac)-3,3,3-trifluoro-1-{4-[1-(2-{[6-(pyrimidin-4-yl)-1H-benzimidazol-2-yl]amino}pyridin-4-yl)ethyl]piperazin-1-yl}propan-1-one] | 2.47
COc1c(NCC2CC2)ncnc1-c1ccc2nc(Nc3cc(C(C)N4CCN(C(=O)CC(F)(F)F)CC4)ccn3)[nH]c2c1 (single isomer, unassigned) [Example 109.02.03, 1-{4-[(1R or 1S)-1-{2-[(6-{6-[(cyclopropylmethyl)amino]-5-methoxypyrimidin-4-yl}-1H-benzimidazol-2-yl)amino]pyridin-4-yl}ethyl]piperazin-1-yl}-3,3,3-trifluoropropan-1-one] | 2.4
CC(c1ccnc(Nc2nc3ccc(-c4cc(N5CC(C(F)(F)F)C5)ncn4)cc3[nH]2)c1)N1CCN(C(=O)C2(C(F)(F)F)CC2)CC1 (single isomer, unassigned) [Example 164.04, {4-[(1R or 1S)-1-{2-[(6-{6-[3-(trifluoromethyl)azetidin-1-yl]pyrimidin-4-yl}-1H-benzimidazol-2-yl)amino]pyridin-4-yl}ethyl]piperazin-1-yl}[1-(trifluoromethyl)cyclopropyl]methanone] | 0.832
CC(c1ccnc(Nc2nc3ccc(-c4ccnn4C)cc3[nH]2)c1)N1CCN(C(=O)CC(F)(F)F)CC1 (single isomer, unassigned) [Example 123.02, 3,3,3-trifluoro-1-{4-[(1R or 1S)-1-(2-{[6-(1-methyl-1H-pyrazol-5-yl)-1H-benzimidazol-2-yl]amino}pyridin-4-yl)ethyl]piperazin-1-yl}propan-1-one] | 35
COc1c(-c2ccc3nc(Nc4cc(C(C)N5CCN(C(=O)CC(F)(F)F)CC5)ccn4)[nH]c3c2)ncnc1N1CCC1 (single isomer, unassigned) [Example 111.03, 1-(4-{(1R or 1S)-1-[2-({6-[6-(azetidin-1-yl)-5-methoxypyrimidin-4-yl]-1H-benzimidazol-2-yl}amino)pyridin-4-yl]ethyl}piperazin-1-yl)-3,3,3-trifluoropropan-1-one] | 1.4
COc1c(NC2CCC2)ncnc1-c1ccc2nc(Nc3cc(C(C)N4CCN(C(=O)CC(F)(F)F)CC4)ccn3)[nH]c2c1 (single isomer, unassigned) [Example 114.02, 1-(4-{(1R or 1S)-1-[2-({6-[6-(cyclobutylamino)-5-methoxypyrimidin-4-yl]-1H-benzimidazol-2-yl}amino)pyridin-4-yl]ethyl}piperazin-1-yl)-3,3,3-trifluoropropan-1-one] | 8.27
COc1c(C)ncnc1-c1ccc2nc(Nc3cc(C(C)N4CCN(C(=O)CC(F)(F)F)CC4)ccn3)[nH]c2c1 (single isomer, unassigned) [Example 83.03, 3,3,3-trifluoro-1-{4-[(1R or 1S)-1-(2-{[6-(5-methoxy-6-methylpyrimidin-4-yl)-1H-benzimidazol-2-yl]amino}pyridin-4-yl)ethyl]piperazin-1-yl}propan-1-one] | 2.2
O=C(CC(F)(F)F)N1CCN(Cc2ccnc(Nc3nc4ccc(-c5cc(OCC6(C(F)(F)F)CC6)ncn5)cc4[nH]3)c2)CC1 [Example 158.02, 3,3,3-trifluoro-1-{4-[(2-{[6-(6-{[1-(trifluoromethyl)cyclopropyl]methoxy}pyrimidin-4-yl)-1H-benzimidazol-2-yl]amino}pyridin-4-yl)methyl]piperazin-1-yl}propan-1-one] | 21

Next, values leading:

IC50 [nM] | SMILES
13.6 | Cc1cc(CN2CCN(C(=O)C3CC3)CC2)cc(Nc2nc3ccc(-c4ccncn4)cc3[nH]2)n1 [Example 23.02.02, cyclopropyl{4-[(2-methyl-6-{[6-(pyrimidin-4-yl)-1H-benzimidazol-2-yl]amino}pyridin-4-yl)methyl]piperazin-1-yl}methanone]
212 | COc1nc(Cl)cc(-c2ccc3nc(Nc4cc(CN5CCN(C(=O)OC(C)(C)C)CC5)ccn4)[nH]c3c2)n1 [Example 185.01, tert-butyl 4-[(2-{[6-(6-chloro-2-methoxypyrimidin-4-yl)-1H-benzimidazol-2-yl]amino}pyridin-4-yl)methyl]piperazine-1-carboxylate]
491 | Cc1noc(-c2ccc3nc(Nc4cc(CN5CCN(C(=O)C6CCC6)CC5(C)C)ccn4)[nH]c3c2)n1 [Example 16.04.05, cyclobutyl{3,3-dimethyl-4-[(2-{[6-(3-methyl-1,2,4-oxadiazol-5-yl)-1H-benzimidazol-2-yl]amino}pyridin-4-yl)methyl]piperazin-1-yl}methanone]
95.3 | O=C(CC(F)(F)F)N1CCN(Cc2ccnc(Nc3nc4ccc(-c5ncnc(NCC6CCC6)c5F)cc4[nH]3)c2)CC1 [Example 191.02, 1-[4-({2-[(6-{6-[(cyclobutylmethyl)amino]-5-fluoropyrimidin-4-yl}-1H-benzimidazol-2-yl)amino]pyridin-4-yl}methyl)piperazin-1-yl]-3,3,3-trifluoropropan-1-one]
96.7 | COc1nccc(-c2ccc3nc(Nc4cc(CN5CCN(C(=O)CC6CC6)CC5)ccn4)[nH]c3c2)n1 [Example 25.01.03, 2-cyclopropyl-1-{4-[(2-{[6-(2-methoxypyrimidin-4-yl)-1H-benzimidazol-2-yl]amino}pyridin-4-yl)methyl]piperazin-1-yl}ethanone]
229 | Cc1noc(-c2ccc3nc(Nc4cc(CN5CCN(C(=O)C6CC6)CC5)ccn4)[nH]c3c2C)n1 [Example 54.02, cyclopropyl{4-[(2-{[7-methyl-6-(3-methyl-1,2,4-oxadiazol-5-yl)-1H-benzimidazol-2-yl]amino}pyridin-4-yl)methyl]piperazin-1-yl}methanone]
36.9 | CCn1cc(-c2ccc3nc(Nc4cc(CN5CCN(C(=O)C6CC6)CC5)ccn4)[nH]c3c2OCC(C)C)cn1 [Example 52.02, cyclopropyl{4-[(2-{[6-(1-ethyl-1H-pyrazol-4-yl)-7-(2-methylpropoxy)-1H-benzimidazol-2-yl]amino}pyridin-4-yl)methyl]piperazin-1-yl}methanone]
32.5 | COc1nnccc1-c1ccc2nc(Nc3cc(CN4CCN(C(=O)C5CC5)CC4)ccn3)[nH]c2c1 [Example 46.01, cyclopropyl{4-[(2-{[6-(3-methoxypyridazin-4-yl)-1H-benzimidazol-2-yl]amino}pyridin-4-yl)methyl]piperazin-1-yl}methanone]
140 | N#Cc1cnccc1-c1ccc2nc(Nc3cc(CN4CCN(C(=O)CC(F)(F)F)CC4)ccn3)[nH]c2c1 [Example 133.02, 4-{2-[(4-{[4-(3,3,3-trifluoropropanoyl)piperazin-1-yl]methyl}pyridin-2-yl)amino]-1H-benzimidazol-6-yl}pyridine-3-carbonitrile]
8.5 | CC(C)Oc1cc(-c2ccc3nc(Nc4cc(CN5CCN(C(=O)C6CC6)CC5)ccn4)[nH]c3c2)ncn1 [Example 160.03, cyclopropyl(4-{[2-({6-[6-(propan-2-yloxy)pyrimidin-4-yl]-1H-benzimidazol-2-yl}amino)pyridin-4-yl]methyl}piperazin-1-yl)methanone]
6.67 | Cc1nccc(-c2ccc3nc(Nc4cc(C(C)N5CCN(C(=O)C6CC6)CC5)ccn4)[nH]c3c2)n1 (single isomer, unassigned) [Example 24.05.04.A, cyclopropyl{4-[(1R or 1S)-1-(2-{[6-(2-methylpyrimidin-4-yl)-1H-benzimidazol-2-yl]amino}pyridin-4-yl)ethyl]piperazin-1-yl}methanone]
2.9 | O=C(CC(F)(F)F)N1CCN(Cc2ccnc(Nc3nc4ccc(-c5cc(N6CCCCC6)ncn5)cc4[nH]3)c2)CC1 [Example 145.02, 3,3,3-trifluoro-1-(4-{[2-({6-[6-(piperidin-1-yl)pyrimidin-4-yl]-1H-benzimidazol-2-yl}amino)pyridin-4-yl]methyl}piperazin-1-yl)propan-1-one]
15 | O=C(CC(F)(F)F)N1CCN(Cc2ccnc(Nc3nc4ccc(-c5cc(OCC6CCC6)ncn5)cc4[nH]3)c2)CC1 [Example 159.02, 1-(4-{[2-({6-[6-(cyclobutylmethoxy)pyrimidin-4-yl]-1H-benzimidazol-2-yl}amino)pyridin-4-yl]methyl}piperazin-1-yl)-3,3,3-trifluoropropan-1-one]
0.61 | CC(c1ccnc(Nc2nc3ccc(-c4cnn(CC5CC5(F)F)c4)cc3[nH]2)c1)N1CCN(C(=O)C2CC2)CC1 (single isomer, unassigned) [Example 55.03.01, cyclopropyl{4-[(1R or 1S)-1-(2-{[6-(1-{[(1R or 1S)-2,2-difluorocyclopropyl]methyl}-1H-pyrazol-4-yl)-1H-benzimidazol-2-yl]amino}pyridin-4-yl)ethyl]piperazin-1-yl}methanone]
30 | COc1c(-c2ccc3nc(Nc4cc(CN5CCN(C(=O)C6CC6)CC5)ccn4)[nH]c3c2)ncnc1N(C)CC1CC1 [Example 110.02, cyclopropyl[4-({2-[(6-{6-[(cyclopropylmethyl)(methyl)amino]-5-methoxypyrimidin-4-yl}-1H-benzimidazol-2-yl)amino]pyridin-4-yl}methyl)piperazin-1-yl]methanone]
